Where two headings read alike, the source gives them in different places.
How the values were obtained:
[1] = target: T1, human αVβ3 expressed in HEK-293 cells (HEK-αVβ3) (Homo sapiens, UniProt P05106+P06756); test: inhibition of HEK-αVβ[…] cell adhesion to immobilized fibrinogen; assay type: cell-based
[2] = target: T1, human αVβ3 expressed in HEK-293 cells (HEK-αVβ3); test: exposure of mAb AP5; assay type: cell-based
[3] = target: T2, purified αVβ5 (R&D Systems) (Homo sapiens, UniProt P06756+P18084); test: inhibition of binding of purified αVβ[…] to immobilized vitronectin, plate assay
[4] = target: T1, human αVβ3 expressed in HEK-293 cells (HEK-αVβ3); test: inhibition of HEK-αVβ[…] cell adhesion to fibronectin; assay type: cell-based
[5] = target: purified human αVβ3 (R&D Systems) (Homo sapiens, UniProt P05106+P06756); test: biochemical
[6] = target: T2, purified αVβ5 (R&D Systems); details: read-out: IC50 (μM) purified αVβ5 binding to vitronectin; antagonist
[7] = target: T1, human αVβ3 expressed in HEK-293 cells (HEK-αVβ3); test: cell-based; design: species or system HEK-293 expressing human αVβ3

## COc1ccc(C(CC(=O)O)N2CCN(CCCc3ccc4c(n3)NCCC4)C2=O)cn1 (racemic) [A, TDI-806]
[1]
  IC50: 0.003 µM
[2]
  EC50: 0.012 µM

## O=C(O)CCCNC(=O)CCCCc1ccc2c(n1)NCCC2 [D, TDI-2668]
[1]
  IC50: 1.02 µM
[2]
  EC50: > 10 µM

## O=C(CCCCc1ccc2c(n1)NCCC2)NCC[C@@H](Nc1nc2ccccc2o1)C(=O)O [TDI-4158]
[1]
  IC50: 0.123 ± 0.055 µM
[2]
  EC50: > 10 µM

## O=C(CCCCc1ccc2c(n1)NCCC2)NCC[C@H](NC(=O)c1nc2ccccc2s1)C(=O)O [G, TDI-4161]
[3]
  IC50: 0.689 ± 0.374 µM
[4]
  IC50: 0.042 ± 0.021 µM
[5]
  IC50: 0.012 ± 0.005 µM

## COc1ccc(C(CC(=O)O)N2CCN(CCCc3ccc4c(n3)NCCC4)C2=O)cn1 (racemic) [MK-429 racemate]
[5]; read-out: IC50 (μM) purified αVβ3 binding to penton base, antagonist
  IC50: 0.011 ± 0.005 µM
[6]
  IC50: 0.035 ± 0.019 µM

## O=C(CCCCc1ccc2c(n1)NCCC2)NCCC(NC(=O)c1nc2ccccc2s1)C(=O)O (racemic) [F, TDI-3909]
[1]
  IC50: 0.049 ± 0.016 µM

## O=C(CCCCc1ccc2c(n1)NCCC2)NCCC(Nc1nc2ccccc2o1)C(=O)O (racemic) [E, TDI-3761]
[3]
  IC50: 0.875 ± 0.348 µM
[4]
  IC50: 0.079 ± 0.01 µM
[5]
  IC50: 0.049 ± 0.05 µM
[7]
  IC50: 0.172 ± 0.066 µM

## O=C(CCCCc1ccc2c(n1)NCCC2)NCC[C@H](Nc1nc2ccccc2o1)C(=O)O [TDI-4160]
[1]; 1 mM Mg2+, 2 mM Ca2+, pH 7.4, room temperature
  IC50: 0.185 ± 0.042 µM
[2]
  EC50: > 10 µM

## O=C(O)CCNC(=O)CCCCc1ccc2c(n1)NCCC2 [C, TDI-1367]
[1]
  IC50: 0.756 ± 0.607 µM
[2]
  EC50: > 10 µM

Reference: doi:10.1101/620765v2 (biorxiv, 2019)
